Experimental data as given in PubChem BioAssay AID1117277 (The Scripps Research Institute Molecular Screening Center, 2014).
Activity calls are given as the source filed them. No rule for the calls is given here.

Test system: Jurkat human T cells viability, luminescence (cytotoxicity counterscreen)
Test: viability loss in human Jurkat cells – cell-based, luminescence, cytotoxicity control, dose response (AID 1117277)

With O=C(C[N+]12CCC(CC1)C(OC(=O)c1ccccc1)C2)c1ccc([N+](=O)[O-])cc1 (stereo unspecified) the IC50 was > 83.3 µM (inactive).
